Laboratory results as given in ChEMBL document CHEMBL1201862, “PubChem BioAssay data set” (2004).
Each block holds one compound with its values, some of them ahead of it. Active and inactive are the calls of the source.

Legend:
[1] = P. falciparum late gametocyte killing, dose response, luminescence (AID 1117278); type: functional, cell-based;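 further: gametocytes exposed to compound for 24 hours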
[2] = Jurkat T cell cytotoxicity, dose response, cytotoxicity control for P. falciparum gametocyte viability project, luminescence (AID 1117277); type: functional, cell-based;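 further: potency reflects loss of cellular ATP meaning fewer viable cells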
[3] = target: fMet-Leu-Phe receptor (Homo sapiens, UniProt P21462); test: FPR ligands, dose response (AID 519); type: functional
Chain of fMet-Leu-Phe receptor (P21462 whole entry): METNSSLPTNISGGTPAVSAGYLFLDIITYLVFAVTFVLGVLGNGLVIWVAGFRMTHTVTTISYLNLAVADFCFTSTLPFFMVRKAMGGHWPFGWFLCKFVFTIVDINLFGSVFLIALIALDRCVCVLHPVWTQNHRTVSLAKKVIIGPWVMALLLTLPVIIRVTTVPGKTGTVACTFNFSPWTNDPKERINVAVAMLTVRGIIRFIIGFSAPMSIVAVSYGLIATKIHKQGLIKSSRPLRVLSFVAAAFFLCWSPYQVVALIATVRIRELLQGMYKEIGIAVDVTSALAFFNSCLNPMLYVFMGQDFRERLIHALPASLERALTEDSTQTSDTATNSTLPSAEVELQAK

[4] = inhibitors of PGC1a acetylation in cells, dose response, cell-based, cherry-picked samples (AID 720514); type: functional;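 further: potency may reflect raised or lowered acetylation signal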
[5] = HepG2 cell cytotoxicity, dose response, cytotoxicity control, plate reader, cherry-pick, antagonist series (AID 743416); type: functional, cell-based
[6] = LGR2 antagonists, dose response, cell-based, HEK293, CRE-luciferase reporter, cherry pick, set 2 (AID 743343); type: functional;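 further: transfected cells were stimulated with diluted bursicon conditioned medium after compound addition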
[7] = A549 cell cytotoxicity, dose response, cytotoxicity control, plate reader, cherry-pick, antagonist series (AID 743412); type: functional, cell-based
[8] = non-specific cell cytotoxicity, dose response, cytotoxicity control for PAX8 inhibitor project, plate reader, dry powder samples (AID 743021); type: functional, cell-based
[9] = target: Paired box protein Pax-8 (Homo sapiens, UniProt Q06710); test: inhibitors of PAX8-driven TPO luciferase reporter, dose response, RMG-I cells, cherry-pick (AID 687027); type: functional, cell-based;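 further: luciferase reporter driven by Pax8 target thyroperoxidase promoter measured by SteadyGlo luminescence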
Chain of Paired box protein Pax-8 (Q06710 whole entry): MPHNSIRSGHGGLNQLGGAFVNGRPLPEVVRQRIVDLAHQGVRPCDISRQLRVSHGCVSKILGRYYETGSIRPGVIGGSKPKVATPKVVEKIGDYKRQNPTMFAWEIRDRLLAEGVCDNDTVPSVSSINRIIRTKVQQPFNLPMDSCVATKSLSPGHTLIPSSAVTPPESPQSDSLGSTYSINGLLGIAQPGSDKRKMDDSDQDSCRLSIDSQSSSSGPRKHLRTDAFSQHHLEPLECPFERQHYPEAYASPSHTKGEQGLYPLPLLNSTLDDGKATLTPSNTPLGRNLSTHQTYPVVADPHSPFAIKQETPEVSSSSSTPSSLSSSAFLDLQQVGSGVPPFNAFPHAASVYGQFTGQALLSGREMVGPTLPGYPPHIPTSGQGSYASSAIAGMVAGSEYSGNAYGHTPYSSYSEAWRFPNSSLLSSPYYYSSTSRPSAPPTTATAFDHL

[10] = HEK293 cell cytotoxicity, dose response, cytotoxicity control, plate reader, cherry-picked samples (AID 743446); type: functional, cell-based
[11] = MC4R antagonists, dose response, counter-screen for LGR2 antagonist project, cell-based, plate reader, cherry pick (AID 743444); type: functional;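 further: transfected HEK 293 cells stimulated with alpha-MSH peptide; potency of inhibitors of the alpha-MSH evoked signal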
[12] = CellTiter-Glo luminescent dose response of DLD-1 viability loss (AID 1117352); type: functional
[13] = RKO cell viability reduction, dose response, CellTiter-Glo luminescence (AID 1117322); type: functional
[14] = HeLa 2N DNA content increase, dose response, cell-based, IC50 (AID 1117349); type: functional
[15] = Concentration-dependent survival of SW480 colon cancer line, luminescence detection with CellTiter-Glo, half-maximal inhibitory concentration (AID 1117338); type: functional
[16] = cytotoxicity toward HT-29 cells – cell-based, CellTiter-Glo luminescence, IC50, dose response (AID 1117330); type: functional
[17] = SNU-C1 cell viability reduction, dose response, CellTiter-Glo luminescence (AID 1117323); type: functional, cell-based
[18] = HCT116 cell viability decrease, GSK3B pretreatment – CellTiter-Glo, IC50, dose response (AID 1117339); type: functional; conditions: HCT-116
[19] = cytotoxicity toward Colo320 cells – cell-based, CellTiter-Glo luminescence, IC50, dose response (AID 1117334); type: functional; conditions: COLO 320
[20] = cytotoxicity toward HCT116 cells – cell-based, CellTiter-Glo luminescence, IC50, dose response (AID 1117332); type: functional; conditions: HCT-116
[21] = HeLa 4N DNA content increase, dose response, cell-based, IC50 (AID 1117351); type: functional
[22] = P. falciparum Dd2 growth inhibitors, dose response, SYBR Green, cherry-picked samples (AID 1159567); type: functional, cell-based
[23] = HepG2 cell cytotoxicity, dose response, cytotoxicity control, cherry-picked samples (AID 1159577); type: functional, cell-based
[24] = target: 1-phosphatidylinositol 4,5-bisphosphate phosphodiesterase beta-3 (Homo sapiens, UniProt Q01970); test: Fluorescence-based biochemical high throughput dose response assay to identify inhibitors of phospholipase C isozymes (PLC-B3).
Chain of 1-phosphatidylinositol 4,5-bisphosphate phosphodiesterase beta-3 (Q01970 whole entry): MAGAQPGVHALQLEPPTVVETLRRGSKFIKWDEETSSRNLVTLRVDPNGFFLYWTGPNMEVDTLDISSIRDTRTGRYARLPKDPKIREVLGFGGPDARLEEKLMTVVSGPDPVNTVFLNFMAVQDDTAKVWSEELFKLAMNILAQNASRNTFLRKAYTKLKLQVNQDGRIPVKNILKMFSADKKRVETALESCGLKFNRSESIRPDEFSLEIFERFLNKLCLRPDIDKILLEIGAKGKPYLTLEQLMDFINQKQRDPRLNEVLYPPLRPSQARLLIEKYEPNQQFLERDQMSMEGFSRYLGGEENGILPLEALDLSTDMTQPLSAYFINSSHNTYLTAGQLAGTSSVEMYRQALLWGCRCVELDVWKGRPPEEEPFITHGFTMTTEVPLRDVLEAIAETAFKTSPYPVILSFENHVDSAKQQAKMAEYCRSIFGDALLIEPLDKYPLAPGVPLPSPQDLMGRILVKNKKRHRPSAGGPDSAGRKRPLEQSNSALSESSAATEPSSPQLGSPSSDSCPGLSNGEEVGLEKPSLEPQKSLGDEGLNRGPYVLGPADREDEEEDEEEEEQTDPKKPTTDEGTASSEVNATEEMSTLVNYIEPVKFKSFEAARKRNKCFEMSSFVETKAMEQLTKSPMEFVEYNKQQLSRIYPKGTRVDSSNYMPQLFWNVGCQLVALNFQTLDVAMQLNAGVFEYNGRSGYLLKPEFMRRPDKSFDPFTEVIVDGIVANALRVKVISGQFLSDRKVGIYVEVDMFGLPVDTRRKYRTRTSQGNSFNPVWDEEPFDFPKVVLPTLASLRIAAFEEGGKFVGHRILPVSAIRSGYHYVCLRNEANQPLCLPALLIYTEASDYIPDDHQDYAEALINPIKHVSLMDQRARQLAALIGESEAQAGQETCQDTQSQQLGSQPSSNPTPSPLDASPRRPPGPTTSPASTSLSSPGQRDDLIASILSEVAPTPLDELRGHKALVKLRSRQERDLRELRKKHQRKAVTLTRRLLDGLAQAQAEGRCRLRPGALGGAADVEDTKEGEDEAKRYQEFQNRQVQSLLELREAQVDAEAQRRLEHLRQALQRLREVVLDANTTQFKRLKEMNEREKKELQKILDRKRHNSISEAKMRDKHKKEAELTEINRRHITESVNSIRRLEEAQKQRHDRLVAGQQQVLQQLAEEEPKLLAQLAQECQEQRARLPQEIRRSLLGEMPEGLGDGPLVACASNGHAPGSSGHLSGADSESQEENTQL

[25] = target: 1-phosphatidylinositol 4,5-bisphosphate phosphodiesterase gamma-1 (Homo sapiens, UniProt P19174); test: Counterscreen for inhibitors of phospholipase C isozymes (PLC-B3): Fluorescence-based biochemical high throughput dose response assay to identify inhibitors of phospholipase C isozymes (PLC-gamma1).
Chain of 1-phosphatidylinositol 4,5-bisphosphate phosphodiesterase gamma-1 (P19174 whole entry): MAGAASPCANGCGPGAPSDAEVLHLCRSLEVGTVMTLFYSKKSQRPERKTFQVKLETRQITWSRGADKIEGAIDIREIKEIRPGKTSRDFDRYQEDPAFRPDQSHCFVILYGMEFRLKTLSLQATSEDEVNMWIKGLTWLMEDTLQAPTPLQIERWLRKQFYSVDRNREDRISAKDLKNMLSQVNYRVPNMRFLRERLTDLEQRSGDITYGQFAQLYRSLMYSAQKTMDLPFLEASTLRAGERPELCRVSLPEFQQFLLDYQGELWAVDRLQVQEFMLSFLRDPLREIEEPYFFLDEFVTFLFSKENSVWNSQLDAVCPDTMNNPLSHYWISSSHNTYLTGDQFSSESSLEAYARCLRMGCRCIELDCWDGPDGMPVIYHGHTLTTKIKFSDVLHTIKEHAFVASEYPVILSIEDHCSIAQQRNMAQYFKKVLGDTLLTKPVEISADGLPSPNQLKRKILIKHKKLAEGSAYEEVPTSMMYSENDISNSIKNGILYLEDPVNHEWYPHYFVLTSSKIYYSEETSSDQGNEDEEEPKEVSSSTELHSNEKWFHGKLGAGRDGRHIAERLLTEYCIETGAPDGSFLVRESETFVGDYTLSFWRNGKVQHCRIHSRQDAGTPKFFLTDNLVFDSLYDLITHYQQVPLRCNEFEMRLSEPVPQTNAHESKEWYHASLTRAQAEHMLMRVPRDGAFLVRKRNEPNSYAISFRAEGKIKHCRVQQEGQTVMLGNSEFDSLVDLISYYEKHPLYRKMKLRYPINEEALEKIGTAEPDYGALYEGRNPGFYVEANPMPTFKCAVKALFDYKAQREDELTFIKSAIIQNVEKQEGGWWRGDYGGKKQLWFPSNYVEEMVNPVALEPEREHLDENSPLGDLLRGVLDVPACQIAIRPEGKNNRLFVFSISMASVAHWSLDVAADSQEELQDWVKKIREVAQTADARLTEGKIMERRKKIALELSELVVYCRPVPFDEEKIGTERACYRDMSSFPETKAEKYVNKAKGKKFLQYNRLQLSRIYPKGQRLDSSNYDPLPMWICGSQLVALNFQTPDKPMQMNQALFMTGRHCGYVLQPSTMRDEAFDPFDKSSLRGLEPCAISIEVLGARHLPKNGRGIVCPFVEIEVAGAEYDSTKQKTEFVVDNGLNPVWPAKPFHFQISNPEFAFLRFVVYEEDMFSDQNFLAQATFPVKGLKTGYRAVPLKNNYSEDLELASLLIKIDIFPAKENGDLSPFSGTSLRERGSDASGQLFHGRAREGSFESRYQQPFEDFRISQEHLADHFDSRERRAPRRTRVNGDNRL

[26] = HepG2 cell cytotoxicity, dose response, cytotoxicity control, plate reader, dry powder samples (AID 1159569); type: functional, cell-based;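 further: inhibitor potency with signal falling toward the positive control level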
[27] = P. falciparum Dd2 growth inhibitors, dose response, SYBR Green, dry powder samples (AID 1159566); type: functional, cell-based;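 further: potency for growth inhibition with lower SYBR green DNA signal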
[28] = P. falciparum ATP4 D1247Y mutant growth inhibitors, dose response, NITD609-resistant line, SYBR Green, dry powder (AID 1159571); type: functional, cell-based;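 further: parasites synchronized at ring stage by sorbitol before testing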
[29] = P. falciparum 3D7-ScDHODH growth inhibitors, dose response, SYBR Green, dry powder samples (AID 1159570); type: functional, cell-based;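 further: parasite growth measured after 72 hours of compound exposure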

Structure (SMILES): Cn1c(CCNC(=O)C2CCCCC2)nc2cc(NC(=O)c3cccs3)ccc21
- IC50 [1]: > 109 µM (inactive)
- IC50 [2]: > 83.3 µM (inactive)

- Ki [3]: > 66.7 µM (inactive)
Structure (SMILES): Cc1ccc(NC(=O)c2oc3ccc(S(=O)(=O)N4CCOCC4)cc3c2C)cc1C

Structure (SMILES): Cc1nc(O)c(C(=O)/C=C/c2ccccc2)c2c1CCCC2
- AC50 [4]: 8.12 µM (active)

Structure (SMILES): COc1ccc(-n2nnnc2C(CCc2ccccc2)N2CCC(n3c(O)nc4ccccc43)CC2)cc1 (configuration not stated)
- AC50 [5]: > 52 µM (inactive)
- AC50 [4]: 21.4 µM (active)
- AC50 [6]: 11.3 µM (active)
- AC50 [7]: 14.7 µM (active)
- AC50 [8]: 24.5 µM (active)
- AC50 [9]: 7.54 µM (active)
- AC50 [10]: 10.1 µM (active)
- AC50 [11]: 9.43 µM (active)

Structure (SMILES): CN1CCC(Nc2ncc3ncnc(Nc4ccc(F)c(Cl)c4)c3n2)CC1
- IC50 [12]: 2.29 µM (active)
- IC50 [13]: 3.17 µM (active)
- IC50 [14]: > 10 µM (inactive)
- IC50 [15]: 2.35 µM (active)
- IC50 [16]: 4 µM (active)
- IC50 [17]: 12 µM (inactive)
- IC50 [18]: 3.38 µM (active)
- IC50 [19]: 11.7 µM (inactive)
- IC50 [20]: > 20 µM (inactive)
- IC50 [21]: > 10 µM (inactive)

Structure (SMILES): COc1ccccc1CN1C[C@@H]2N[C@H](C1)[C@@H]2c1ccc(-c2ccccc2OC)cc1
- AC50 [22]: 4.29 µM (active)
- AC50 [23]: 11.6 µM (active)

- IC50 [24]: > 122 µM (inactive)
- IC50 [25]: 2.03 µM (active)
Structure (SMILES): COC(=O)C(C(=O)OC)[C@H]1C=C[C@@H](C(=O)NS(=O)(=O)c2ccc(C)cc2)N(C(C)=O)C1

Structure (SMILES): C[C@@H]1CN([C@@H](C)CO)C(=O)c2cccc(NC(=O)c3nc4ccccc4s3)c2O[C@@H]1CN(C)C(=O)Nc1cccc2ccccc12
- AC50 [22]: 2.98 µM (active)
- AC50 [26]: 71.7 µM (active)
- AC50 [27]: 2.51 µM (active)
- AC50 [28]: 2 µM (active)
- AC50 [29]: 2.73 µM (active)

Structure (SMILES): O=C(c1ccc2c(c1)OCO2)N1CC(=O)N2[C@H](CO)[C@H](c3ccc(C#Cc4ccccc4)cc3)[C@H]2C1
- AC50 [22]: 2.52 µM (active)
- AC50 [26]: 25 µM (active)
- AC50 [27]: 1.68 µM (active)
- AC50 [23]: 26.3 µM (active)
- AC50 [28]: 1.93 µM (active)
- AC50 [29]: 5.73 µM (active)

Structure (SMILES): O=C(O)c1ccc(-n2nc(-c3ccccc3O)nc2-c2ccccc2O)cc1 [DEFERASIROX]
- IC50 [12]: 0.651 µM (active)
- IC50 [13]: 0.1 µM (active)
- IC50 [14]: > 10 µM (inactive)
- IC50 [15]: 0.0776 µM (active)
- IC50 [16]: 0.516 µM (active)
- IC50 [17]: 0.233 µM (active)
- IC50 [18]: 0.242 µM (active)
- IC50 [19]: 0.409 µM (active)
- IC50 [20]: 0.438 µM (active)
- IC50 [21]: > 10 µM (inactive)
